Like-named read-outs stand apart in the source and are kept apart here.
How the values were obtained:
[1] = system: DU4475; test: In vitro cell viability assay (CellTiter-Glo, ATP levels), triple negative breast cancer cells; assay type: cell-based; conditions: Homo sapiens, DU-4475, 168 h
Protocol: (§1) In Vitro Cell Viability Assay
(§2) The present disclosure provides a method for inhibiting cell viability, as measured by ATP levels. The method for inhibiting cell viability is drawn to contacting various cancer cells with the compounds described herein at various concentrations. The cancer cell lines were maintained in culture conditions at 37° C. in an atmosphere of 5% CO2 in air. The cells growing in an exponential growth phase were harvested and counted for plating. Compounds were incubated in two cancer cell types representing multiple myeloma (MOLP-8) and triple negative breast cancer (DU4475). Cells were plated at an optimized cell numbers per well in 96-well plates and allowed to attach to the plates overnight at approximately 80% confluency.
(§3) After addition of compounds, plates were incubated for 7-day. At the end of incubation period on day 8, media was removed and replaced with a solution of CellTiter-Glo™ reagent (Promega®) according to protocol. Luminescence was read using an EnVision® multi-label plate reader (Perkin-Elmer®), and signal intensity was calculated relative to positive and negative control wells. Cisplatin was included as the positive control. A dose-response calculation was performed in a non-linear regression fit and by using the Hill equation to calculate a concentration-response curve and 50% inhibitory concentration (IC50) values for each compound.
(§4) The average IC50 values of compounds 1-15 in multiple myeloma (MOLP-8) and triple negative breast cancer (DU4475) cells are shown in Table 1.

[2] = system: HCT116 (colorectal cancer) cells; test: Resazurin-based cell viability assay using colorectal cancer cells; conditions: Homo sapiens, HCT-116, 72 hr incubation
Protocol: Determination of Potency of Compounds in Cell Viability Assay Using Colorectal Cancer Cells
The blue dye resazurin-based assay was performed to determine cell viability and used according to manufacture protocol (Sigma®). HCT116 (colorectal cancer) cells were seeded in the DMEM medium (10% FBS serum). Approximately 1,500 cells were plated per well in 96 well plates. Cells were allowed to grow at 37° C. for 24 hr in 5% CO2 environment in a humidified incubator. Serially diluted compounds (100 μL) were added to the culture plate after 24 hr. After addition of compounds, plates were incubated for 72 hr. Experiment was terminated at the designated incubation time by replacing the medium with 100 μL of 1 mM of resazurin (Sigma®) prepared in culture medium (DMEM) and were further incubated in culture conditions for 4-6 hours. Fluorescence was recorded using a multimodal plate reader (Biotek Synergy Neo®) at an excitation wavelength of 535 nm and emission wavelength of 590 nm to obtain relative fluorescence units. Data analysis was done by subtracting the background fluorescence (medium blank) value from each reading and then normalizing with the vehicle control (DMSO treated cells) to obtain percent survival/proliferation. IC50 was calculated from percent survival values using GraphPad Prism® (see Table 1).

[3] = system: MOLP-8; test: In vitro cell viability assay (CellTiter-Glo, ATP levels), multiple myeloma cells; assay type: cell-based; conditions: Homo sapiens, MOLP-8, 168 h
Protocol: as §1, §2, §3, §4

[4] = 7-day incubation, CellTiter-Glo, average values, read-out: DU4475 IC50
[5] = 7-day incubation, CellTiter-Glo, average values, read-out: MOLP-8 IC50

SMILES	IC50 [1, 4] [nM]	IC50 [2] [nM]	IC50 [3, 5] [nM]	IC50 ([1]; read-out: average IC50 in triple negative breast cancer (DU4475) cells) [nM]	IC50 ([3]; read-out: average IC50 in multiple myeloma (MOLP-8) cells) [nM]
O=C1C=CCCN1C(=O)/C=C/C1CCCCC1 [Compound 2, (E)-1-(3-cyclohexylacryloyl)-5,6-dihydropyridin-2(1H)-one]	950	2600	1050		
O=C1C=CCCCN1C(=O)/C=C/c1cnc2ccccc2c1 [Compound 3, (E)-1-(3-(quinolin-3-yl)acryloyl)-1,5,6,7-tetrahydro-2H-azepin-2-one]	760	1700	360		
O=C1C=CCCCN1C(=O)/C=C/c1cccnc1 [Compound 4, (E)-1-(3-(pyridin-3-yl)acryloyl)-1,5,6,7-tetrahydro-2H-azepin-2-one]	590	1900	520		
O=C1C=CCCCN1C(=O)/C=C/c1ccncc1 [Compound 5, (E)-1-(3-(pyridin-4-yl)acryloyl)-1,5,6,7-tetrahydro-2H-azepin-2-one]	570	2000	490		
O=C1C=CCCCN1C(=O)/C=C/c1cnccn1 [Compound 6, (E)-1-(3-(pyrazin-2-yl)acryloyl)-1,5,6,7-tetrahydro-2H-azepin-2-one]	560	2400	440		
O=C1C=CCCN1C(=O)/C=C/c1ncccn1 [Compound 7, (E)-1-(3-(pyrimidin-2-yl)acryloyl)-5,6-dihydropyridin-2(1H)-one]	490	1500	570		
O=C1C=CCCCN1C(=O)/C=C/c1ccccn1 [Compound 8, (E)-1-(3-(pyridin-2-yl)acryloyl)-1,5,6,7-tetrahydro-2H-azepin-2-one]	500	1500	410		
CC(=O)N1CCC(/C=C/C(=O)N2CCC=CC2=O)CC1 [Compound 9, (E)-1-(3-(1-acetylpiperidin-4-yl)acryloyl)-5,6-dihydropyridin-2(1H)-one]	920	5700	970		
O=C1C=CCCN1C(=O)C=C1c2ccccc2-c2ccccc21 [Compound 10, 1-(2-(9H-fluoren-9-ylidene)acetyl)-5,6-dihydropyridin-2(1H)-one]	950	1900	2120		
O=C1C=CCCN1S(=O)(=O)/C=C/c1cccnc1 [Compound 11, (E)-1-((2-(pyridin-3-yl)vinyl)sulfonyl)-5,6-dihydropyridin-2(1H)-one]	580	1900	500		
O=C1C=CCCCN1C(=O)/C=C/c1cncc2ccccc12 [Compound 12, (E)-1-(3-(isoquinolin-4-yl)acryloyl)-1,5,6,7-tetrahydro-2H-azepin-2-one]	600	960	890		
O=C1C=CCCCN1C(=O)/C=C/c1ncccn1 [Compound 13, (E)-1-(3-(pyrimidin-2-yl)acryloyl)-1,5,6,7-tetrahydro-2H-azepin-2-one]	670	1300	510		
O=C1C=CCCCN1S(=O)(=O)/C=C/c1ccccc1 [Compound 14, (E)-1-(styrylsulfonyl)-1,5,6,7-tetrahydro-2H-azepin-2-one]	3040	7000	3510		
O=C1C=CCCCN1C(=O)/C=C/c1ccc2ccccc2n1 [Compound 15, (E)-1-(3-(quinolin-2-yl)acryloyl)-1,5,6,7-tetrahydro-2H-azepin-2-one]	500	880	500		
O=C1C=C(Cl)CCN1C(=O)/C=C/c1ncccn1 [Compound 36, (E)-4-chloro-1-(3-(pyrimidin-2-yl)acryloyl)-5,6-dihydropyridin-2(1H)-one]		2970			
O=C1C=CCCN1C(=O)/C=C/c1ccnnc1 [Compound 39, (E)-1-(3-(pyridazin-4-yl)acryloyl)-5,6-dihydropyridin-2(1H)-one]	650		300		
CN1CCC(/C=C/C(=O)N2CCC=CC2=O)CC1 [Compound 41, (E)-1-(3-(1-methylpiperidin-4-yl)acryloyl)-5,6-dihydropyridin-2(1H)-one]		1240			

SMILES	IC50 [1, 4] [nM]	IC50 [2] [nM]	IC50 [3, 5] [nM]	IC50 ([1]; read-out: average IC50 in triple negative breast cancer (DU4475) cells) [nM]	IC50 ([3]; read-out: average IC50 in multiple myeloma (MOLP-8) cells) [nM]
C/C(=C\c1ncccn1)C(=O)N1CCC=CC1=O [Compound 42, (E)-1-(2-methyl-3-(pyrimidin-2-yl)acryloyl)-5,6-dihydropyridin-2(1H)-one]		2200			
C/C(=C\c1ncccn1)C(=O)N1CCC=C(Cl)C1=O [Compound 46, (E)-3-chloro-1-(2-methyl-3-(pyrimidin-2-yl)acryloyl)-5,6-dihydropyridin-2(1H)-one]		970			
CS(=O)(=O)N1CCC(/C=C/C(=O)N2CCC=CC2=O)CC1 [Compound 47, 1-{(2E)-3-[1-(methylsulfonyl)piperidin-4-yl]prop-2-enoyl}-5,6-dihydropyridin-2(1H)-one]		3140			
O=C1C=CCCN1C(=O)/C=C/c1ncc2ccccc2n1 [Compound 48, (E)-1-(3-(quinazolin-2-yl)acryloyl)-5,6-dihydropyridin-2(1H)-one]	350		290		
O=C(c1ccc(F)cc1)N1CCC(/C=C/C(=O)N2CCC=CC2=O)CC1 [Compound 50, (E)-1-(3-(1-(4-fluorobenzoyl)piperidin-4-yl)acryloyl)-5,6-dihydropyridin-2(1H)-one]	500		410		
O=C1C=CCCN1C(=O)/C=C/C1CCN(S(=O)(=O)c2ccc(F)cc2)CC1 [Compound 51, (E)-1-(3-(1-(4-fluorophenylsulfonyl)piperidin-4-yl)acryloyl)-5,6-dihydropyridin-2(1H)-one]	570		560		
Cn1cc(/C=C/C(=O)N2CCC=CC2=O)c2ccccc21 [Compound 52, 1-[(2E)-3-(1-methyl-1H-indol-3-yl)prop-2-enoyl]-5,6-dihydropyridin-2(1H)-one]	1520		1000		
O=C(c1ccccc1)N1CCC(/C=C/C(=O)N2CCC=CC2=O)CC1 [Compound 54, 1-[(2E)-3-(1-benzoylpiperidin-4-yl)prop-2-enoyl]-5,6-dihydropyridin-2(1H)-one]		1400			
CC(C)(O)CN1CCC(/C=C/C(=O)N2CCC=CC2=O)CC1 [Compound 59, 1-{(2E)-3-[1-(2-hydroxy-2-methylpropyl)piperidin-4-yl]prop-2-enoyl}-5,6-dihydropyridin-2(1H)-one]	840		390		
O=C1C=CCCN1C(=O)/C=C/C1CCN(Cc2ccc(F)cc2)CC1 [Compound 60, 1-{3-[1-(4-fluorobenzyl)piperidin-4-yl]prop-2-enoyl}-5,6-dihydropyridin-2(1H)-one]	590		340		
O=C1C=CCCN1C(=O)/C=C/C1CCN(c2ccc(F)cc2)CC1 [Compound 61, 1-{3-[1-(4-fluorophenyl)piperidin-4-yl]prop-2-enoyl}-5,6-dihydropyridin-2(1H)-one]	950		680		
CC1(/C=C/C(=O)N2CCC=CC2=O)CCN(C(=O)OC(C)(C)C)CC1 [Compound 64, tert-butyl (E)-4-methyl-4-(3-oxo-3-(6-oxo-3,6-dihydropyridin-1(2H)-yl)prop-1-en-1-yl)piperidine-1-carboxylate]		4320			
O=C1C=CCCN1C(=O)/C=C/c1cnc2c(n1)OCCO2 [Compound 65, (E)-1-(3-(2,3-dihydro-[1,4]dioxino[2,3-b]pyrazin-6-yl)acryloyl)-5,6-dihydropyridin-2(1H)-one]		2250			
CC1=CCCN(C(=O)/C=C/c2cnn(C)c2)C1=O [Compound 93, (E)-3-methyl-1-(3-(1-methyl-1H-pyrazol-4-yl)acryloyl)-5,6-dihydropyridin-2(1H)-one]		88300			
COc1cc(/C=C/C(=O)N2C(=O)C=CCC2(C)C)cc(OC)c1OC [Compound 94, (E)-6,6-dimethyl-1-(3-(3,4,5-trimethoxyphenyl)acryloyl)-5,6-dihydropyridin-2(1H)-one]		3150			
COc1cc(/C=C/C(=O)N2CCC=CC2=O)cc(OC)c1OC [Piperlongumine, 1-[(E)-3-(3,4,5-trimethoxyphenyl)prop-2-enoyl]-2,3-dihydropyridin-6-one]				~1240	~1010

— patent US11485725B2, “Derivatives of piperlongumine and uses thereof” (Auransa Inc., priority 2017, dated 2022)
